System: K98450-129-R-PDC complex spheroid growth, percent test/control
Test: Anticancer human tumor K98450-129-R-PDC patient-derived colon adenocarcinoma cell line growth inhibition [RAS]
Details: for IC50: curve of first compound; for viability, T/C: stronger effect = lower value; active means viability on the fitted dose curve at most 10% of control; inactive means the rest
Description: RAS pathway inhibitors in Combinations in Complex Spheroids
A high-throughput screen of multi-cell type tumor spheroids was designed to identify active combinations of RAS pathway inhibitors and targeted small molecules. Complex spheroids include a stromal component modeled by human endothelial cells (HUVEC) and fibroblasts modeled by human mesenchymal stem cells (MSCs). The concentration ranges selected for each drug and investigational agent were based upon clinically achievable concentrations if the clinical Cmax of the agent was known.
Compounds. The drugs and investigational agents: abemaciclib (NSC768073), cobimetinib (NSC768068), divarasib (GDC6063, NSC841802), docetaxel (NSC628503), GDC-1971 (RLY-1971, NSC841576), gemcitabine (NSC613327), inavolisib (NSC800729), ipatasertib (NSC767898), KB-0742 (NSC834161), MRTX-1133 (NSC836407), osimertinib (NSC779217), RMC-4630 (NSC839698), RMC-6236 (NSC851965), RMC-6291 (NSC852671), Ro-3306 (NSC812927), sapanisertib (NSC764658), SN-38 (NSC673596), staurosporine (NSC755774), SY5609 (NSC837396), and tovorafenib (DAY101, NSC766906), were obtained from the National Cancer Institute (NCI) Developmental Therapeutics Program Chemical Repository. The FDA-approved anticancer drug set is available from the NCI Developmental Therapeutics Program. […] The stock solutions were prepared in dimethyl sulfoxide (DMSO, Sigma-Aldrich, St. Louis, MO, cat. D2650) at 800-fold the tested concentration and stored at -70 degrees C prior to their use. All drugs and investigational agents were tested over a range starting from a high concentration at or near the clinical Cmax and decreasing in half-log increments. If the clinical Cmax for an agent had not been determined, the highest concentration tested was 10 microM.
Cell Culture. All cells were maintained in an incubator at 37 degrees C and 5% CO2 with 95% humidity. The PDC lines were cultured according to standard operating procedures established by the NCI PDMR. All PDCs were thawed and cultured in Matrigel-coated flasks prepared with a working solution of 1X Ham's F-12 nutrient mix, without supplementation (Invitrogen, Waltham, MA, cat. 11765054), 100 U/mL penicillin-streptomycin (Invitrogen, cat. 15140122), and 2.5% Matrigel (Corning Inc., Corning, NY, cat. 354248) for the first three passages. The 362531-283-R-J2-PDC and 782815-120-R-J1-PDC lines were cultured in 6C/Colon 1B media, which includes advanced DMEM/F-12 (Thermo Fisher Scientific, cat. 12634028), 10 mM HEPES (Thermo Fisher Scientific, cat. 15630080), 1X GlutaMAX supplement (Thermo Fisher Scientific, cat. 35050061), 0.1 mg/mL primocin (InvivoGen, San Diego, CA, cat. ant-pm-2), 10% defined fetal bovine serum, heat inactivated (HyClone Laboratories Inc., Logan, UT, cat. SH30070.03HI), 50% L-WRN conditioned media (ATCC, cat. CRL-3276), 1.25 mM N-Acetyl-L-cysteine (Sigma-Aldrich, cat. A9165), 10 mM nicotinamide (Sigma-Aldrich, cat. N0636), 1X B-27 supplement (Thermo Fisher Scientific, cat. 17504044), 1X N-2 supplement (Thermo Fisher Scientific, cat. 17502048), 50 ng/mL human EGF (Thermo Fisher Scientific, cat. PHG0311), and 10 microM Y-27632 dihydrochloride (Tocris Bioscience, cat. 1254). The K12877-001-R-J1-PDC line was cultured in 6I media, which includes all 6C/Colon 1B media plus 10 ng/mL human FGF-10 (PeproTech, cat. 100-26), 1 ng/mL human FGF-2 (PeproTech, cat. 100-18B), 1 µM prostaglandin E2 (Tocris Bioscience, cat. 2296), […] hydrocortisone (Sigma-Aldrich, cat. H4001), and […] bovine insulin (Sigma-Aldrich, cat. I6634). The K86415-001-R-J1-PDC line was cultured in 6D media, which includes all 6C/Colon 1B media components minus the L-WRN conditioned media. The 485176-168-R4-J1-PDC was cultured in PANC media, which includes all 6C/Colon 1B media plus 100 ng/mL human FGF-10 (PeproTech, cat. 100-26), 500 nM SB-431542 (Selleckchem, cat. S1067), and 10 nM gastrin (Tocris Bioscience, cat. 3006). […]

[1] = second compound 0.0316 µM, first compound 0.0316 µM
[2] = second compound 0.0316 µM, first compound 0.1 µM
[3] = second compound 0.0316 µM, first compound 0.316 µM
[4] = second compound 0.0316 µM, first compound 1 µM
[5] = second compound 0.0316 µM, first compound 3.16 µM
[6] = second compound 0.0316 µM, first compound 10 µM
[7] = second compound 0.1 µM, first compound 0.0316 µM
[8] = second compound 0.1 µM, first compound 0.1 µM
[9] = second compound 0.1 µM, first compound 0.316 µM
[10] = second compound 0.1 µM, first compound 1 µM
[11] = second compound 0.1 µM, first compound 3.16 µM
[12] = second compound 0.1 µM, first compound 10 µM
[13] = second compound 0.316 µM, first compound 0.0316 µM
[14] = second compound 0.316 µM, first compound 0.1 µM
[15] = second compound 0.316 µM, first compound 0.316 µM
[16] = second compound 0.316 µM, first compound 1 µM
[17] = second compound 0.316 µM, first compound 3.16 µM
[18] = second compound 0.316 µM, first compound 10 µM
[19] = second compound 1 µM, first compound 0.0316 µM
[20] = second compound 1 µM, first compound 0.1 µM
[21] = second compound 1 µM, first compound 0.316 µM
[22] = second compound 1 µM, first compound 1 µM
[23] = second compound 1 µM, first compound 3.16 µM
[24] = second compound 1 µM, first compound 10 µM
[25] = second compound 3.16 µM, first compound 0.0316 µM
[26] = second compound 3.16 µM, first compound 0.1 µM
[27] = second compound 3.16 µM, first compound 0.316 µM
[28] = second compound 3.16 µM, first compound 1 µM
[29] = second compound 3.16 µM, first compound 3.16 µM
[30] = second compound 3.16 µM, first compound 10 µM
[31] = second compound 10 µM, first compound 0.0316 µM
[32] = second compound 10 µM, first compound 0.1 µM
[33] = second compound 10 µM, first compound 0.316 µM
[34] = second compound 10 µM, first compound 1 µM
[35] = second compound 10 µM, first compound 3.16 µM
[36] = second compound 10 µM, first compound 10 µM
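Further: spheroids exposed to agents for seven days before the viability readout.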
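Wherever viability, T/C is given: luminescence used as a proxy for viable cell amount.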

Cc1nc(N2CCC3(CC2)COC(C)C3N)c(CO)nc1Sc1ccnc(N)c1Cl (stereo unspecified) + C#Cc1c(F)ccc2cc(O)cc(-c3ncc4c(N5CC6CCC(C5)N6)nc(OCC56CCCN5CC(F)C6)nc4c3F)c12
3130 nM: IC50 (second compound 0.1 µM)
1720 nM: IC50 (second compound 1 µM)
active: viability, T/C [30] 10.5% | viability, T/C [36] 7.51%
1070 nM: IC50 (second compound 3.16 µM)
inactive: viability, T/C [1] 104% | viability, T/C [2] 93.3% | viability, T/C [3] 88.8% | viability, T/C [4] 75.8% | viability, T/C [5] 46.9% | viability, T/C [6] 25% | viability, T/C [7] 112% | viability, T/C [8] 93.5% | viability, T/C [9] 83.6% | viability, T/C [10] 80.8% | viability, T/C [11] 45.3% | viability, T/C [12] 21.5% | viability, T/C [13] 101% | viability, T/C [14] 97.5% | viability, T/C [15] 86.1% | viability, T/C [16] 66.6% | viability, T/C [17] 43.1% | viability, T/C [18] 19.8% | viability, T/C [19] 97% | viability, T/C [20] 98.9% | viability, T/C [21] 84% | viability, T/C [22] 64.3% | viability, T/C [23] 34.3% | viability, T/C [24] 12.9% | viability, T/C [25] 91.2% | viability, T/C [26] 82% | viability, T/C [27] 79.8% | viability, T/C [28] 52.7% | viability, T/C [29] 17.1% | viability, T/C [31] 83.4% | viability, T/C [32] 82.2% | viability, T/C [33] 62.8% | viability, T/C [34] 31.7% | viability, T/C [35] 11.4%
3010 nM: IC50 (second compound 0.0316 µM)
2240 nM: IC50 (second compound 0.316 µM)
513 nM: IC50 (second compound 10 µM)

NC1c2ccccc2OC12CCN(c1cnc3c(N4CCCc5ncccc54)n[nH]c3n1)CC2 (stereo unspecified) + C#Cc1c(F)ccc2cc(O)cc(-c3ncc4c(N5CC6CCC(C5)N6)nc(OCC56CCCN5CC(F)C6)nc4c3F)c12
75.8 nM: IC50 (second compound 3.16 µM)
inactive: viability, T/C [1] 92.2% | viability, T/C [2] 73.8% | viability, T/C [3] 32.1% | viability, T/C [4] 17.4% | viability, T/C [5] 11.8% | viability, T/C [6] 9.37% | viability, T/C [7] 97.8% | viability, T/C [8] 72.7% | viability, T/C [9] 31.3% | viability, T/C [10] 14% | viability, T/C [13] 96.6% | viability, T/C [14] 70.2% | viability, T/C [15] 23.4% | viability, T/C [19] 91.2% | viability, T/C [20] 65.2% | viability, T/C [21] 14.2% | viability, T/C [25] 78.2% | viability, T/C [26] 41.1% | viability, T/C [27] 10.8% | viability, T/C [31] 63.9% | viability, T/C [32] 25.6%
195 nM: IC50 (second compound 0.0316 µM)
189 nM: IC50 (second compound 0.1 µM)
165 nM: IC50 (second compound 0.316 µM)
141 nM: IC50 (second compound 1 µM)
48 nM: IC50 (second compound 10 µM)
active: viability, T/C [11] 9.92% | viability, T/C [12] 6.11% | viability, T/C [16] 10.3% | viability, T/C [17] 8.37% | viability, T/C [18] 6.2% | viability, T/C [22] 8.69% | viability, T/C [23] 6.98% | viability, T/C [24] 6.07% | viability, T/C [28] 7.66% | viability, T/C [29] 5.66% | viability, T/C [30] 4.62% | viability, T/C [33] 7.94% | viability, T/C [34] 6.21% | viability, T/C [35] 4.84% | viability, T/C [36] 2.23%

Nc1ccn(C2OC(CO)C(O)C2(F)F)c(=O)n1 (stereo unspecified) + C#Cc1c(F)ccc2cc(O)cc(-c3ncc4c(N5CC6CCC(C5)N6)nc(OCC56CCCN5CC(F)C6)nc4c3F)c12
74.2 nM: IC50 (second compound 1 µM)
87.7 nM: IC50 (second compound 0.1 µM)
83.8 nM: IC50 (second compound 0.316 µM)
inactive: viability, T/C (second compound 0.0316 µM, first compound 0.00316 µM) 109% | viability, T/C (second compound 0.0316 µM, first compound 0.01 µM) 99.1% | viability, T/C [1] 65.4% | viability, T/C [2] 44.8% | viability, T/C [3] 35.6% | viability, T/C [4] 29.6% | viability, T/C (second compound 0.1 µM, first compound 0.00316 µM) 115% | viability, T/C (second compound 0.1 µM, first compound 0.01 µM) 106% | viability, T/C [7] 73.5% | viability, T/C [8] 47% | viability, T/C [9] 37.8% | viability, T/C [10] 29.7% | viability, T/C (second compound 0.316 µM, first compound 0.00316 µM) 107% | viability, T/C (second compound 0.316 µM, first compound 0.01 µM) 96.3% | viability, T/C [13] 75.4% | viability, T/C [14] 44.4% | viability, T/C [15] 33.9% | viability, T/C [16] 30.5% | viability, T/C (second compound 1 µM, first compound 0.00316 µM) 101% | viability, T/C (second compound 1 µM, first compound 0.01 µM) 94.7% | viability, T/C [19] 68.1% | viability, T/C [20] 43.3% | viability, T/C [21] 38% | viability, T/C [22] 31.9% | viability, T/C (second compound 3.16 µM, first compound 0.00316 µM) 95.7% | viability, T/C (second compound 3.16 µM, first compound 0.01 µM) 90% | viability, T/C [25] 70.2% | viability, T/C [26] 46.9% | viability, T/C [27] 39.5% | viability, T/C [28] 31.1% | viability, T/C (second compound 10 µM, first compound 0.00316 µM) 92.5% | viability, T/C (second compound 10 µM, first compound 0.01 µM) 87.9% | viability, T/C [31] 71.6% | viability, T/C [32] 46.6% | viability, T/C [33] 37.2% | viability, T/C [34] 32.4%
87.5 nM: IC50 (second compound 10 µM)
90.5 nM: IC50 (second compound 3.16 µM)
72.2 nM: IC50 (second compound 0.0316 µM)
